Assay results published in US20230357179A1, “RAF KINASE INHIBITORS AND METHODS OF USE THEREOF” (Deciphera Pharmaceuticals, LLC, priority 2021, published 2023).

Assays:
A-Raf kinase = target: T1, A-Raf kinase (Homo sapiens, UniProt P10398, Y301D/Y302D); assay: Biochemical assay for A-Raf.1 (coupled pyruvate kinase/lactate dehydrogenase); conditions: read-out: ARAF.1 IC50
T1 construct: purchased Sigma
Procedure, shortened: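 A-Raf (5.55 nM) phosphorylating 30.1 nM MEK with 1 mM ATP was monitored by pyruvate kinase/lactate dehydrogenase-coupled NADH oxidation at 340 nm for 6 h at 30° C, in pH 7.5 Tris buffer with 15 mM MgCl2, 1% DMSO. Rates from 4–5 h gave percent inhibition; IC50 by four-parameter fit.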

B-Raf kinase = target: T2, B-Raf kinase (Homo sapiens, UniProt P15056); assay: Biochemical assay for B-Raf.1 (coupled pyruvate kinase/lactate dehydrogenase); conditions: read-out: BRAF.1 IC50
T2 construct: GST (N); purchased Sigma
T2 sequence (P15056 416-766): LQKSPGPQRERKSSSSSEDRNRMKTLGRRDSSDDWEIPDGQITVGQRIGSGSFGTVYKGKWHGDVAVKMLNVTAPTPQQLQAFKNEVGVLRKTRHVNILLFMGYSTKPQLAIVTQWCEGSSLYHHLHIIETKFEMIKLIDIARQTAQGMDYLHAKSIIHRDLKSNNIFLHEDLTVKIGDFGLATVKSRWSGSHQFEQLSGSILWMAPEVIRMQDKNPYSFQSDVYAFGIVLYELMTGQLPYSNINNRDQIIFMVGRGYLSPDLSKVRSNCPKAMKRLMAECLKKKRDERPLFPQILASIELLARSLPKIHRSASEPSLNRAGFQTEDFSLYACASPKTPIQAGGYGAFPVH
Procedure, shortened: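 NADH oxidation followed at 340 nm in a pyruvate kinase/lactate dehydrogenase-coupled assay with 0.13 nM B-Raf, 30.1 nM MEK substrate, 1 mM ATP, pH 7.5 Tris buffer, 1% DMSO. Monitored 6 h at 30 °C; rate taken from 4–5 h. IC50 from four-parameter sigmoidal fit.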

H2405 cells = assay: H2405 cell proliferation assay (1), resazurin, 96-well; assay type: cell-based; conditions: Homo sapiens, NCI-H2405, inhibition of cell proliferation
Procedure: H2405 Cell Proliferation Assay (1)
H2405 cells (catalog #CRL-5944) are obtained from the American Type Culture Collect (ATTC, Manassas, VA). Briefly, cells were grown in RPMI 1640 supplemented with 5% characterized fetal bovine serum (Invitrogen, Carlsbad, CA) and 1% Penicillin/Streptomycin/L-Glutamine at 37° C., 5% CO2, and 95% humidity. Cells are expanded until reaching 70-95% confluency at which point they are subcultured or harvested for assay use. A serial dilution of test compound is dispensed into a 96-well black clear bottom plate in triplicate. Three thousand cells are added per well in 200 μL complete growth medium in the 96-well plate. Plates are incubated for 67-72 hours at 37° C., 5% CO2, and 95% humidity. At the end of the incubation, 40 μL of a 440 μM solution of resazurin (Sigma, St. Louis, MO) in PBS is added to each well of the plate and plates are incubated for an additional 5-6 hours at 37° C., 5% CO2, and 95% humidity. Plates are read on a Synergy2 or equivalent reader (Biotek, Winooski VT) using an excitation of 540 nm and an emission of 600 nm. Data is analyzed using Prism software (GraphPad, San Diego, CA) to calculate IC50 values.

B-Raf (V600E) kinase = target: T3, B-Raf (V600E) kinase (Homo sapiens, UniProt P15056, V600E); assay: Biochemical assay for B-Raf (V600E).1 (coupled pyruvate kinase/lactate dehydrogenase); conditions: read-out: BRAF V600E.1 IC50
T3 construct: B-Raf (V600E) residues 416-766 with a; GST (N); purchased SignalChem
T3 sequence (P15056 416-766 V600E): as the sequence (P15056 416-766) above, with V185E counted along it
Procedure, shortened: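 0.03 nM B-Raf(V600E) phosphorylating 30.1 nM MEK at 1 mM ATP, pH 7.5, coupled to PK/LDH, with NADH oxidation followed at 340 nm for 6 h at 30 °C. Rates taken from the 3-4 h window. IC50 from a four-parameter fit of percent inhibition.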

T1 sequence (P10398 with tags, fused parts or gaps Y301D/Y302D): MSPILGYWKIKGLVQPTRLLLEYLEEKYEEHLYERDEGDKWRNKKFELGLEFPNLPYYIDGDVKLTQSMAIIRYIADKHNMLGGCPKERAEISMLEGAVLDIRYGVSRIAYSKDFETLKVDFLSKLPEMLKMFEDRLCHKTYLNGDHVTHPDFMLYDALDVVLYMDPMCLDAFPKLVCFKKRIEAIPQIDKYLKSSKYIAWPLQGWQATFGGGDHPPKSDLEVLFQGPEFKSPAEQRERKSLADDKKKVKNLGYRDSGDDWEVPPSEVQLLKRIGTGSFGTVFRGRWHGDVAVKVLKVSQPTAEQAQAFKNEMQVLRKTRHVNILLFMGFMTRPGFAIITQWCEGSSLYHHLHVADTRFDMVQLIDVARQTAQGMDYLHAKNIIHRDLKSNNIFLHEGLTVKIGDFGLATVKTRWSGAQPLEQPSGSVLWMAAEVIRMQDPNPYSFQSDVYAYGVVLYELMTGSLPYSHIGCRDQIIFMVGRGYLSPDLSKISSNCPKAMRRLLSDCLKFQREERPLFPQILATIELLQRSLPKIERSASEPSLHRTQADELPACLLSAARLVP

IC50 (A-Raf kinase) | IC50 (B-Raf kinase) | IC50 (H2405 cells) | IC50 (B-Raf (V600E) kinase) | SMILES
> 1000 nM | 100 to 500 nM | 1000 to 10000 nM | ≤ 100 nM | COC[C@@H]1CCN(C(=O)Nc2cnc(C)c(-c3cc(OCCO)nc(-c4ccnc(NC(=O)OC)c4)c3)c2)C1 [Example 160]
> 1000 nM | ≤ 100 nM | ≤ 100 nM | ≤ 100 nM | COC(=O)Nc1cc(-c2nc(OCCO)cc(-c3cc(NC(=O)NCCC(C)(C)F)c(F)cc3C)n2)ccn1 [Example 161]
> 1000 nM | ≤ 100 nM | 1000 to 10000 nM | ≤ 100 nM | COC(C)(C)CCNC(=O)Nc1cc(-c2ccnc(-c3ccnc(NC(=O)C4CC4)c3)c2)c(F)cc1F [Example 162]
> 1000 nM | 100 to 500 nM | 1000 to 10000 nM | ≤ 100 nM | COC(=O)Nc1cc(-c2cc(-c3cc(NC(=O)NCCC(C)(C)OC)c(F)cc3F)ccn2)ccn1 [Example 163]
> 1000 nM | ≤ 100 nM | 100 to 500 nM | ≤ 100 nM | CNC(=O)c1cc(-c2cc(-c3cc(NC(=O)NCCC4(C)CC4)c(F)cc3C)cc(OCCO)n2)ccn1 [Example 164]
> 1000 nM | ≤ 100 nM | 100 to 500 nM | ≤ 100 nM | COC(=O)Nc1cc(-c2cc(-c3cc(NC(=O)NCCC(C)(C)F)cnc3C)cc(OCCO)n2)ccn1 [Example 165]
> 1000 nM | 100 to 500 nM | 500 to 1000 nM | ≤ 100 nM | COC(=O)Nc1cc(-c2cc(-c3cc(NC(=O)N4CCC(C)(C)CC4)cnc3C)cc(OCCO)n2)ccn1 [Example 166]
500 to 1000 nM | ≤ 100 nM | ≤ 100 nM | ≤ 100 nM | Cc1cc(F)c(NC(=O)NC2CC(C)(C)C2)cc1-c1cc(OCCO)nc(-c2ccnc(NC(=O)C3CC3)c2)n1 [Example 167]

Continued, compound first:

SMILES | IC50 (A-Raf kinase) | IC50 (B-Raf kinase) | IC50 (H2405 cells) | IC50 (B-Raf (V600E) kinase)
COC[C@@H]1CCN(C(=O)Nc2cc(-c3cc(-c4ccnc(NC(=O)OC)c4)cnn3)c(C)cc2F)C1 [Example 149] | > 1000 nM | 500 to 1000 nM | 1000 to 10000 nM | ≤ 100 nM
COC(=O)Nc1cc(-c2cnnc(-c3cc(NC(=O)N4CCC(CC(F)(F)F)C4)c(F)cc3C)c2)ccn1 (stereo not shown) [Example 150] | > 1000 nM | ≤ 100 nM | 500 to 1000 nM | ≤ 100 nM
COC(=O)Nc1cc(-c2cc(-c3cc(NC(=O)NCCC4(C)CC4)cnc3C)cc(OCCO)n2)ccn1 [Example 151] | > 1000 nM | ≤ 100 nM | 100 to 500 nM | ≤ 100 nM
COC[C@H]1CCN(C(=O)Nc2cnc(C)c(-c3cc(OCCO)nc(-c4ccnc(NC(=O)OC)c4)c3)c2)C1 [Example 152] | > 1000 nM | 100 to 500 nM | 1000 to 10000 nM | ≤ 100 nM
COC(=O)Nc1cc(-c2cnnc(-c3cc(NC(=O)NCCC(C)(C)OC)cnc3C)c2)ccn1 [Example 153] | > 1000 nM | 500 to 1000 nM | 1000 to 10000 nM | ≤ 100 nM
CNC(=O)c1cc(-c2cnnc(-c3cc(NC(=O)NCCC(C)(C)OC)cnc3C)c2)ccn1 [Example 154] | > 1000 nM | > 1000 nM | 1000 to 10000 nM | ≤ 100 nM
COC(=O)Nc1cc(-c2cc(-c3cc(NC(=O)NCCC4COC4)c(F)cc3C)cc(OCCO)n2)ccn1 [Example 155] | > 1000 nM | ≤ 100 nM | 1000 to 10000 nM | ≤ 100 nM
COC(=O)Nc1cc(-c2cc(-c3cc(NC(=O)NC4CC(C)(C)C4)cnc3C)cc(OCCO)n2)ccn1 [Example 156] | > 1000 nM | ≤ 100 nM | 100 to 500 nM | ≤ 100 nM
COC(=O)Nc1cc(-c2cc(-c3cc(NC(=O)N[C@H]4C[C@](C)(F)C4)cnc3C)cc(OCCO)n2)ccn1 [Example 157] | > 1000 nM | ≤ 100 nM | 1000 to 10000 nM | ≤ 100 nM
COC(=O)Nc1cc(-c2nc(OCCO)cc(-c3cc(NC(=O)NC4CC(C)(C)C4)c(F)cc3C)n2)ccn1 [Example 158] | > 1000 nM | ≤ 100 nM | ≤ 100 nM | ≤ 100 nM
Cc1cc(F)c(NC(=O)NCCC(C)(C)F)cc1-c1ccnc(-c2ccnc(NC(=O)C3CC3)c2)c1 [Example 159] | 500 to 1000 nM | ≤ 100 nM | 100 to 500 nM | ≤ 100 nM
